Experimental data taken from patent US20120165319A1, “INHIBITORS OF INTERLEUKIN-1 BETA CONVERTING ENZYME” (VERTEX PHARMACEUTICALS INCORPORATED, priority 1995, published 2012).

The compounds below were run against T1, ICE (Homo sapiens, UniProt P29466) (assay: Enzyme assay with UV-visible substrate (visible ICE assay, Succinyl-Tyr-Val-Ala-Asp-pNitroanilide)). Details: Table 5.
T1 sequence (P29466 120-297 limits assumed): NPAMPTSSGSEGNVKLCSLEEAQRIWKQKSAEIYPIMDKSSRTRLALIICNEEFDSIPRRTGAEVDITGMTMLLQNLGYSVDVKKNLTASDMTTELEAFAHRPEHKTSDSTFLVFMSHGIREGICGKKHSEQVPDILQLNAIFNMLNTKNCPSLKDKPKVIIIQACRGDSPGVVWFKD
T1 sequence (P29466 317-404 limits assumed): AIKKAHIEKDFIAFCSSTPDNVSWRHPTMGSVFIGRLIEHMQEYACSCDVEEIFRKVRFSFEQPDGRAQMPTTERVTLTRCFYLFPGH
Type: biochemical
Procedure: 1. Enzyme Assay with Uv-Visible Substrate
This assay is run using an Succinyl-Tyr-Val-Ala-Asp-pNitroanilide substrate. Synthesis of analogous substrates is described by L. A. Reiter (Int. J. Peptide Protein Res. 12, 87-96 (1994)). The assay mixture contains:
The visible ICE assay is run in a 96-well microtiter plate. Buffer, ICE and DMSO (if inhibitor is present) are added to the wells in the order listed. The components are left to incubate at room temperature for 15 minutes starting at the time that all components are present in all wells. The microtiter plate reader is set to incubate at 37° C. After the 15 minute incubation, substrate is added directly to the wells and the reaction is monitored by following the release of the chromophore (pNA) at 405-603 nm at 37° C. for 20 minutes. A linear fit of the data is performed and the rate is calculated in mOD/min. DMSO is only present during experiments involving inhibitors, buffer is used to make up the volume to 100 μl in the other experiments.
For determination of enzyme inhibition constants (Ki) or the mode of inhibition (competitive, uncompetitive or noncompetitive), the rate data determined in the enzyme assays at varying inhibitor concentrations are computer-fit to standard enzyme kinetic equations (see I. H. Segel, Enzyme Kinetics, Wiley-Interscience, 1975).

Row | SMILES | Ki [nM]
1 | Cc1cccc(CC(=O)N2C[C@H](NC(=O)c3ccccc3)C(=O)N(CC(=O)N[C@H](C=O)CC(=O)O)c3ccccc32)c1 [Compound 605t, (3S)-3-[(3S)-2-Oxo-3-benzoylamino-5-(3-methylphenylacetyl)-2,3,4,5-tetrahydro-1H-1,5-benzodiazepin-1-acetylamino]-4-oxo-butyric acid] | 33
2 | CC(=O)N1C[C@H](NC(=O)c2ccc3ccccc3n2)C(=O)N(CC(=O)N[C@H](C=O)CC(=O)O)c2ccccc21 [Compound 619] | 300
3 | CC(=O)N1C[C@H](NC(=O)c2ccc3cc(OC(=O)c4ccc5cc(O)ccc5c4)ccc3c2)C(=O)N(CC(=O)N[C@H](C=O)CC(=O)O)c2ccccc21 [Compound 623] | 9
4 | CC(=O)N1C[C@H](NC(=O)/C=C/c2ccccc2)C(=O)N(CC(=O)N[C@H](C=O)CC(=O)O)c2ccccc21 [Compound 632] | 148

Results, then the compound that gave them:

Row | Ki [nM] | SMILES
5 | 50 | C[S+](CC(=O)[C@H](CC(=O)O)NC(=O)[C@@H]1CCCN2C(=O)CC[C@H](NC(=O)c3ccccc3)C(=O)N12)Cc1ccccc1Cl (stereo partly shown) [Compound 281]
6 | 280 | CN(C)S(=O)(=O)N[C@H]1CCC(=O)N2CCC[C@@H](C(=O)N[C@H](C=O)CC(=O)O)N2C1=O [Compound 428]
7 | 7000 | N[C@H]1CCC(=O)N2CCC[C@@H](C(=O)N[C@H](C=O)CC(=O)O)N2C1=O [Compound 429]
8 | 40 | O=C[C@H](CC(=O)O)NC(=O)[C@@H]1CCCN2C(=O)CC[C@H](NC(=O)c3cccc(F)c3)C(=O)N12 [Compound 462]
9 | 140 | O=C[C@H](CC(=O)O)NC(=O)[C@@H]1CCCN2C(=O)CC[C@H](NC(=O)/C=C/c3ccncc3)C(=O)N12 [Compound 472]
10 | 85 | CC(=O)c1ccc(C(=O)N[C@H]2CCC(=O)N3CCC[C@@H](C(=O)N[C@H](C=O)CC(=O)O)N3C2=O)cc1 [Compound 474]
11 | 60 | O=C[C@H](CC(=O)O)NC(=O)[C@@H]1CCCN2C(=O)CC[C@H](NC(=O)c3ccc(O)c(CN4CCOCC4)c3)C(=O)N12 [Compound 477]
12 | 380 | NS(=O)(=O)c1ccc(C(=O)N[C@H]2CCC(=O)N3CCC[C@@H](C(=O)N[C@H](C=O)CC(=O)O)N3C2=O)cc1 [Compound 478]
13 | 43 | O=C[C@H](CC(=O)O)NC(=O)[C@@H]1CCCN2C(=O)CC[C@H](NC(=O)Cc3ccccc3)C(=O)N12 [Compound 495]
14 | 1000 | O=C[C@H](CC(=O)O)NC(=O)CN1C(=O)[C@@H](NC(=O)c2ccccc2)CN(C(=O)OC2CCOC2)c2ccccc21 (stereo partly shown) [Compound 605q]
15 | 300 | CC(=O)N1C[C@H](NC(=O)c2ccsc2)C(=O)N(CC(=O)N[C@H](C=O)CC(=O)O)c2ccccc21 [Compound 624]
16 | 105 | CC(=O)N1C[C@H](NC(=O)c2sc(C)nc2C)C(=O)N(CC(=O)N[C@H](C=O)CC(=O)O)c2ccccc21 [Compound 625]
17 | 260 | CC(=O)N1C[C@H](NC(=O)c2cccc(O)c2C)C(=O)N(CC(=O)N[C@H](C=O)CC(=O)O)c2ccccc21 [Compound 626]
18 | 230 | CC(=O)N1C[C@H](NS(=O)(=O)c2ccccc2)C(=O)N(CC(=O)N[C@H](C=O)CC(=O)O)c2ccccc21 [Compound 629]
19 | 270 | CC(=O)N1C[C@H](NC(=O)Cc2ccccc2)C(=O)N(CC(=O)N[C@H](C=O)CC(=O)O)c2ccccc21 [Compound 630]
20 | 805 | CC(=O)N1C[C@H](NS(=O)(=O)Cc2ccccc2)C(=O)N(CC(=O)N[C@H](C=O)CC(=O)O)c2ccccc21 [Compound 631]
21 | 1400 | CC(=O)N1C[C@H](NC(=O)O[C@H]2CCOC2)C(=O)N(CC(=O)N[C@H](C=O)CC(=O)O)c2ccccc21 [Compound 634]

Same assay, conditions: Table 17

Row | SMILES | Ki [nM]
22 | CC(=O)NCC(=O)N1C[C@H](NC(=O)c2cccc3ccccc23)C(=O)N(CC(=O)N[C@H](C=O)CC(=O)O)c2ccccc21 [Compound 645, (3S)-3-[(3S)-2-Oxo-3-(1-naphthoyl)amino-5-(2-acetamido)acetyl-2,3,4,5-tetrahydro-1H-1,5-benzodiazepine-1-acetylamino]-4-oxo-butyric acid] | 150
23 | CC(=O)N1C[C@H](NC(=O)/C=C/c2ccc(Cl)c(Cl)c2)C(=O)N(CC(=O)N[C@H](C=O)CC(=O)O)c2ccccc21 [Compound 700] | 275
24 | CC(=O)N1C[C@H](NC(=O)CCc2ccc3c(c2)OCO3)C(=O)N(CC(=O)N[C@H](C=O)CC(=O)O)c2ccccc21 [Compound 707] | 180
25 | CC(=O)N1C[C@H](NC(=O)/C=C/c2ccc3c(c2)OCO3)C(=O)N(CC(=O)N[C@H](C=O)CC(=O)O)c2ccccc21 [Compound 708] | 140
26 | CC(=O)N1C[C@H](NC(=O)C(=O)Nc2ccc(Cl)cc2)C(=O)N(CC(=O)N[C@H](C=O)CC(=O)O)c2ccccc21 [Compound 710] | 110

The next lines start with the values.

Row | Ki [nM] | SMILES
27 | 3000 | CO/N=C/[C@H](CC(=O)O)NC(=O)[C@@H]1CCCN2C(=O)CC[C@H](NC(=O)c3ccc(OC)cc3)C(=O)N12 [Compound 308c, [3S(1S,9S)3-(9-(4-Methoxybenzoyl)amino-6,10-dioxo-1,2,3,4,7,8,9,10-octahydro-6H-pyridazino[1,2-a][1,2]diazepine-1-carboxamido)-amino]-4-oxobutanoic acid, O-methyl oxime]
28 | 3000 | COc1ccc(C(=O)N[C@H]2CCC(=O)N3CCC[C@@H](C(=O)N[C@H](/C=N/OCc4ccccc4)CC(=O)O)N3C2=O)cc1 [Compound 308d, [3S(1S,9S)3-(9-(4-Methoxybenzoyl)amino-6,10-dioxo-1,2,3,4,7,8,9,10-octahydro-6H-pyridazino[1,2-a][1,2]diazepine-1-carboxamido)-amino]-4-oxobutanoic acid, O-benzyl oxime]
29 | 90 | CC(=O)N1C[C@H](NC(=O)C(=O)c2cccs2)C(=O)N(CC(=O)N[C@H](C=O)CC(=O)O)c2ccccc21 [Compound 701]
30 | 175 | CC(=O)N1C[C@H](NC(=O)C(=O)c2ccco2)C(=O)N(CC(=O)N[C@H](C=O)CC(=O)O)c2ccccc21 [Compound 711]
31 | 65 | O=C[C@H](CC(=O)O)NC(=O)[C@@H]1CCCN2C(=O)CCN(NC(=O)C(=O)c3cccs3)C(=O)N12 [Compound 1107]
32 | 80 | O=C[C@H](CC(=O)O)NC(=O)[C@@H]1CCCN2C(=O)CCN(NC(=O)C(=O)c3ccc4c(c3)OCO4)C(=O)N12 [Compound 1109]
33 | 45 | COc1ccc(C(=O)C(=O)NN2CCC(=O)N3CCC[C@@H](C(=O)N[C@H](C=O)CC(=O)O)N3C2=O)cc1 [Compound 1110]
34 | 290 | O=C[C@H](CC(=O)O)NC(=O)[C@@H]1CCCN2C(=O)CCN(NC(=O)CCc3ccc(Cl)cc3)C(=O)N12 [Compound 1113]
35 | 125 | O=C[C@H](CC(=O)O)NC(=O)[C@@H]1CCCN2C(=O)CCN(NC(=O)CCc3ccc4c(c3)OCO4)C(=O)N12 [Compound 1114]

Same assay, conditions: Table 27

Row | Ki [nM] | SMILES
36 | 200 | COCC(=O)N1C[C@H](NC(=O)c2cc(C)c(O)c(C)c2)C(=O)N(CC(=O)N[C@H](/C=N/OCc2c(Cl)cccc2Cl)CC(=O)O)c2ccccc21 [Compound 688c, (3S)-3-[(3S)-2-Oxo-3-(3,5-dimethyl-4-hydroxybenzoyl)amino-5-methoxyacetyl-2,3,4,5-tetrahydro-1H-1,5-benzodiazepine-1-acetylamino]-4-oxobutyric acid, O-2,6-dichlorobenzyl oxime]
37 | 0.5 | O=C[C@H](CC(=O)O)NC(=O)CN1C(=O)[C@@H](NC(=O)c2nccc3ccccc23)CN(C(=O)CO)c2cc(F)ccc21 [Compound 696-1, (3S)-3-[(3S)-2-oxo-3-isoquinolin-1-oylamino-5-hydroxyacetyl-2,3,4,5-tetrahydro-7-fluoro-1H-1,5-benzodiazepine-1-acetylamino]-4-oxobutyric acid]
38 | 0.5 | O=C[C@H](CC(=O)O)NC(=O)CN1C(=O)[C@@H](NC(=O)c2nccc3ccccc23)CN(C(=O)CO)c2cc(Cl)ccc21 [Compound 696-2, (3S)-3-[(3S)-2-Oxo-3-isoquinolin-1-oylamino-5-hydroxyacetyl-2,3,4,5-tetrahydro-7-chloro-1H-1,5-benzodiazepine-1-acetylamino]-4-oxobutyric acid]
39 | 1.1 | COCC(=O)N1C[C@H](NC(=O)c2nccc3ccccc23)C(=O)N(CC(=O)N[C@H](C=O)CC(=O)O)c2ccccc21 [Compound 699, (3S)-3-[(3S)-2-Oxo-3-isoquinolin-1-oylamino-5-methoxyacetyl-2,3,4,5-tetrahydro-1H-1,5-benzodiazepine-1-acetylamino]-4-oxobutyric acid]
40 | 2.7 | COC(=O)N1C[C@H](NC(=O)c2ccc(O)c(Cl)c2)C(=O)N(CC(=O)N[C@H](C=O)CC(=O)O)c2ccccc21 [Compound 720]
41 | 300 | CC(=O)O[C@@H](C)C(=O)N1C[C@H](NC(=O)c2cc(C)c(O)c(C)c2)C(=O)N(CC(=O)N[C@H](C=O)CC(=O)O)c2ccccc21 [Compound 726]
42 | 300 | CC(=O)OC(C)(C)C(=O)N1C[C@H](NC(=O)c2cc(C)c(O)c(C)c2)C(=O)N(CC(=O)N[C@H](C=O)CC(=O)O)c2ccccc21 [Compound 728]
43 | 150 | CC(=O)N[C@@H](CCC(=O)O)C(=O)N[C@H]1CN(C(=O)CO)c2ccccc2N(CC(=O)N[C@H](C=O)CC(=O)O)C1=O [Compound 731]
